From paper PMC11979947, “Modeling Krebs cycle from liver, heart and hepatoma mitochondria, supported Complex I as target for specific inhibition of cancer cell proliferation” (Frontiers in Oncology, 2025)
Where two headings read alike, the source gives them in different places.

What was measured:
[1] = tested on: MCF10A breast non-cancer cells; experiment: MTT cell proliferation assay, MCF10A; type: cell-based, human; settings: for IC50: read-out: IC50 on proliferation
Procedure: (§1) Human cervix cancer HeLa and SiHa, human prostate cancer PC3, human colon cancer colo-205, and rat heart myoblast H9c2 cells (CRL-1446, ATCC, Manassas, VA, USA) were cultured in DMEM medium, while human breast cancer MCF7 cells were cultivated in MEM medium. Human breast epithelial MCF-10A cells (CRL-10317, ATCC, Manassas, VA, USA) were cultivated in F-12/DMEM medium. All media were supplemented with 25 mM glucose, 10% fetal bovine serum (Biowest, Riverside, MO, USA) and 10,000 U streptomycin/penicillin/mL under an atmosphere of 5% CO2 and 95% air at 37°C until 80-90% confluence.
(§2) The cell lines (20 × 10^3 cells/well) were grown in 96-well plates containing Dulbecco’s Modified Eagle’s Medium (DMEM) (Sigma-Aldrich, St Louis, MO, USA) for 24 h. Afterward, the cells were exposed to rotenone (1 nM to 50 µM) or malonate (0.1µM to 100 mM) for 24 h. Drug effects on cell proliferation were determined by using the 3-(4,5-dimethyl-thiazol-2-yl)-2,5-diphenyltetrazolium bromide (MTT) (Sigma-Aldrich, St Louis, MO, USA) assay. Plates were incubated at 37°C for 3 h; after, the medium was discarded, and the formazan crystals were dissolved with 100 µL DMSO. After 5 min incubation at 37°C, the absorbance was measured at λ 595 nm ([34]).

[2] = tested on: H9c2 heart myoblast cells; experiment: MTT cell proliferation assay, H9c2; type: cell-based, rat; settings: read-out: IC50 on proliferation
Procedure: as §1, §2

MCF7 breast cancer cells = experiment: MTT cell proliferation assay, MCF7; type: cell-based, human; settings: read-out: IC50 on proliferation
Procedure: as §1, §2

HeLa cervix cancer cells = experiment: MTT cell proliferation assay, HeLa; type: cell-based, human; settings: read-out: IC50 on proliferation
Procedure: as §1, §2

[3] = tested on: PC3 prostate cancer cells; experiment: MTT cell proliferation assay, PC3; type: cell-based, human; settings: read-out: IC50 on proliferation
Procedure: as §1, §2

[4] = tested on: COLO-205 colon cancer cells; experiment: MTT cell proliferation assay, COLO-205; type: cell-based, human; settings: read-out: IC50 on proliferation
Procedure: as §1, §2

SiHa cervix cancer cells = experiment: MTT cell proliferation assay, SiHa; type: cell-based; settings: Homo sapiens, 24 h, read-out: IC50 on proliferation
Procedure: as §1, §2

SMILES | IC50 ([1]; MCF10A, 24 h treatment, MTT) | IC50 ([2]; H9c2, 24 h treatment, MTT) | IC50 (MCF7 breast cancer cells; MCF7, 24 h treatment, MTT) | IC50 (HeLa cervix cancer cells; 24 h treatment, MTT) | IC50 ([3]; PC3, 24 h treatment, MTT) | IC50 ([4]; COLO-205, 24 h treatment, MTT) | IC50 ([1]; Homo sapiens, MCF-10A, 24 h) | Effect on proliferation ([1]; MCF10A, 50 µM, 24 h of treatment) | IC50 ([2]; Rattus norvegicus, H9c2, 24 h) | IC50 (MCF7 breast cancer cells; Homo sapiens, MCF7, 24 h) | IC50 (SiHa cervix cancer cells) | IC50 (HeLa cervix cancer cells; Homo sapiens, 24 h) | IC50 ([3]; Homo sapiens, 24 h) | IC50 ([4]; Homo sapiens, COLO 205, 24 h)
O=C(O)CC(=O)O [Malonate, malonate] | 43 ± 9 mM | 25 ± 5 mM | 41 ± 1 mM | 27 ± 5 mM | 40 ± 2 mM | 32 ± 3 mM | – | – | – | – | – | – | – | –
C=C(C)[C@H]1Cc2c(ccc3c2O[C@@H]2COc4cc(OC)c(OC)cc4[C@@H]2C3=O)O1 [Rotenone, rotenone] | – | – | – | – | – | – | > 0.05 mM | not affected | 0.034 ± 0.01 mM | 0.00015 ± 9e-05 mM | 18 ± 3 µM | 0.017 ± 0.005 mM | 0.013 ± 0.001 mM | 0.037 ± 0.009 mM
